The text below walks through data of US20240124464A1, “SUBSTITUTED FUSED BICYCLIC COMPOUND AS KINASE INHIBITOR AND USE THEREOF” (IMPACT THERAPEUTICS (SHANGHAI), INC, priority 2020, published 2024).

One assay has as its target T1, NUAK1 (Homo sapiens, UniProt O60285).
T1 sequence (O60285 1-661): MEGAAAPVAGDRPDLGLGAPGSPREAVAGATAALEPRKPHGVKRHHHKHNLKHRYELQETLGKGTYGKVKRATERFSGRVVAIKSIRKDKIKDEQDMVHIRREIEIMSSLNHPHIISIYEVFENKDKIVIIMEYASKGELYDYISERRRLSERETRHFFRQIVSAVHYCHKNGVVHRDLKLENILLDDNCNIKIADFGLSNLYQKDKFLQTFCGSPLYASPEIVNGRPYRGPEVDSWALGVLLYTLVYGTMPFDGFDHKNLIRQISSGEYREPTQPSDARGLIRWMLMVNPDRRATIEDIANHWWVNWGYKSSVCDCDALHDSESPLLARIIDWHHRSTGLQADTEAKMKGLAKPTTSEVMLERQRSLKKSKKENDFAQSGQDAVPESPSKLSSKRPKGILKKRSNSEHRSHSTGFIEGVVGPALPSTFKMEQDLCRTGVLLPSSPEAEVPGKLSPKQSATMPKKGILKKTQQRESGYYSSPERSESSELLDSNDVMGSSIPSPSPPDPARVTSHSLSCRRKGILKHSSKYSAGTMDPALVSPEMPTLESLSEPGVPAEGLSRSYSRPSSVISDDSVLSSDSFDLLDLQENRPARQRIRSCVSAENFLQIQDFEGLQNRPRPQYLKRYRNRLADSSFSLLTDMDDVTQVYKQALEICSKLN
The settings on record: cited from earlier work.

Assay [1] deals with T2, NUAK1 (mutation from Ala to Thr at position 195) (Homo sapiens, UniProt O60285, A195T).
T2 sequence (O60285 1-661 A195T): T1 sequence (O60285 1-661) with A195T
The settings on record: cited from earlier work.

In another assay the test system is MEF cells. Conditions: compared with shRNA knockdown of NUAK1; cited from earlier work.
The test system of another assay is U2OS cell. The settings on record: 3D invasion assay, compared with NUAK1 knockout; cited from earlier work.
The next assay deals with T3, NUAK1(h) enzyme (Homo sapiens, UniProt O60285).
T3 construct: purchased Eurofins Discovery
T3 sequence (O60285 1-661): T1 sequence (O60285 1-661)
Nature of the assay: In vitro NUAK1 enzymatic assay (Eurofins Discovery, [γ-33P]-ATP filter assay). The assay is classed as biochemical. Conditions: 45 μM ATP, 40 min, room temperature; read-out: IC50, inhibitory effect on NUAK1 enzyme activity. The protocol:
In Vitro Assay to Determine the Inhibitory Effect of Compounds in the Patent on NUAK1 Enzymatic Activity
The in vitro NUAK1 enzymatic assay was carried out at Eurofins Discovery to evaluate the inhibitory effect of the compounds presented in the invention. The assay protocol is as follow: the compound to be tested was mixed with NUAK1(h) enzyme and 300 μM […] substrate in 8 mM MOPS (pH 7.0) buffer containing 0.2 mM EDTA and incubated at room temperature. A Mg/ATP mixture containing 10 mM magnesium acetate and 45 μM [y-33P]-ATP was added to start the reaction. After incubation for 40 min at room temperature, the reaction was terminated by adding 0.5% phosphoric acid. Then, 10 μL of the reaction mix was spotted onto a P30 filter paper followed with four times of wash with 0.425% phosphoric acid solution (4 min each time), and one time wash with methanol. The filter paper was air-dried and counted in a liquid scintillation counter. The values obtained were plotted against the drug concentration and the IC50 was calculated.
Table 1 summarizes the inhibitory effect (IC50) of compounds tested on the NUAK1 enzyme activity in the present invention. ++++ indicates IC50≤10 nM; […]; ++ indicates 100 nM<IC50≤1 μM; + indicates IC50>1 μM.

The target in a further assay is T4, NUAK2(h) enzyme (Homo sapiens, UniProt Q9H093).
T4 construct: purchased Eurofins Discovery
T4 sequence (Q9H093 1-628): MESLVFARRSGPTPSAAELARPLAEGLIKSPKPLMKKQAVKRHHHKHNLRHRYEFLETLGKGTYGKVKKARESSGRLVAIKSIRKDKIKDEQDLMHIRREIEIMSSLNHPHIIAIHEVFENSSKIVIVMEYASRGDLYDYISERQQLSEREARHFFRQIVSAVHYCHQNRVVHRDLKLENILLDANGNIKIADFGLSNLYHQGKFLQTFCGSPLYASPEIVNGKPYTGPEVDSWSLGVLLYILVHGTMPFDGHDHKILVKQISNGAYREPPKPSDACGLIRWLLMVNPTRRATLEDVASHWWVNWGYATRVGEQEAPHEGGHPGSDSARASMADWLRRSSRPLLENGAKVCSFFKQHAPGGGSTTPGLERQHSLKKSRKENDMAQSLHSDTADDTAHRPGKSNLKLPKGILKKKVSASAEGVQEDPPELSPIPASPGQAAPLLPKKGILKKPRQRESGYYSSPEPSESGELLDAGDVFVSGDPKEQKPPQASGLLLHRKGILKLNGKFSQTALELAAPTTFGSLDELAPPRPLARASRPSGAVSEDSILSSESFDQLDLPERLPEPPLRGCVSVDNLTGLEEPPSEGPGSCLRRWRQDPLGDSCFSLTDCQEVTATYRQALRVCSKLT
Put plainly: In vitro NUAK2 enzymatic assay (Eurofins Discovery, [γ-33P]-ATP filter assay). The assay is classed as biochemical. The settings on record: 45 μM ATP, 40 min, room temperature; read-out: IC50, inhibitory effect on NUAK2 enzyme activity. The protocol:
In Vitro Assay to Determine the Inhibitory Effect of Compounds in the Patent on NUAK2 Enzymatic Activity
The in vitro NUAK2 enzymatic assay was carried out at Eurofins Discovery to evaluate the inhibitory effect of the compounds presented in the invention. The assay protocol is as follow: the compound to be tested was mixed with NUAK2(h) enzyme and 300 […] substrate in 8 mM MOPS (pH 7.0) buffer containing 0.2 mM EDTA. A Mg/ATP mixture containing 10 mM magnesium acetate and 45 μM [γ-33P]-ATP was added to start the reaction. After incubation for 40 min at room temperature, the reaction was terminated by adding 0.5% phosphoric acid. Then 10 μL of the reaction mix was spotted onto a P30 filter paper. The filter paper was washed four times with 0.425% phosphoric acid with 4 min for each wash, and one time with methanol. The filter paper was air-dried and counted in a liquid scintillation counter. The values obtained were plotted against the drug concentration and the IC50 was calculated.
Table 1 summarizes the inhibitory effect (IC50) of compounds on the NUAK2 enzyme activity in the present invention. ++++ indicates IC50≤10 nM; +++ indicates 10 nM<IC50≤100 nM; ++ indicates 100 nM<IC50≤1 μM; + indicates IC50>1 μM.

Assay [2] has as its system HEC-1-B human endometrial cancer cells. Put plainly: CTG (CellTiter-Glo) proliferation assay on HEC-1-B cells, 7 days. Conditions: 168 h, 7 days incubation, read-out: IC50, inhibitory effect on proliferation of Hec-1B cells. Type of assay: cell-based. The protocol: CTG Assay to Evaluate the Inhibitory Effect of Compounds on HEC-1-B Human Endometrial Cancer Cells
Human endometrial cancer HEC-1-B cells were resuscitated and cultured in complete medium (MEM medium+10% FBS). When reaching about 80% confluence, the cells were gently blown away from the bottom of the culture dish with a 1 mL pipette. The cells were collected and centrifuged at 500 rpm for 3 min. The supernatant was discarded and the cell pellet was resuspend in fresh medium. Cells were counted to determine cell density and seeded into 96-well plates at a density of 1000 cells per well and incubated overnight at 37° C. in a 5% CO2 incubator. In the next day, the compounds in storage solution was serially diluted with DMSO at a ratio of 1:3 for a total of 9 concentrations. Two μL of each serially diluted solution was added to 98 μL of cell culture medium ([…]), while DMSO was mixed with culture medium similarly to be served as control. The compound dilutions were shaken and mixed. The cell culture plate with cells was removed from CO2 incubator, the culture medium was aspirated from each well, 135 μL of fresh medium was added to each well followed with 15 μL of the compound dilutions. The plates were incubated at 37° C. for 7 days in a 5% CO2 incubator. One hundred μL CellTiter-Glo reagent was added to each well and the plate was vortexed for 2 min and incubated for 10 min to fully lyse the cells. The chemiluminescence values were read using a plate reader.
The chemiluminescence values were plotted against compound concentrations to calculate the inhibitory activity of each compound on cell proliferation Cell inhibition rate (%)=(chemiluminescence value tested compound−chemiluminescence value DMSO control)/(chemiluminescence value medium control−chemiluminescence valueDMSO control)×100%.
A nonlinear S-curve regression was fitted using XLFit software to fit the data to derive a dose-effect curve, from which the IC50 values were calculated. The curve equation was Y=Bottom+(Top-Bottom)/(1+10{acute over ( )}((LogIC50-X)×slope)), where Y is the cellular inhibition rate, X is the compound concentration, Bottom refers to the lowest inhibition rate, and Top refers to the highest inhibition rate.
Table 3 summarizes the inhibitory effects (IC50) of the compounds on the proliferation of Hec-1B cells, Where ++++ indicates 100 nM<IC50≤500 nM; +++ indicates 500 nM<IC50≤1 μM; ++ indicates 1 μM<IC50≤10 μM; + indicates IC50>10 μM.
On the technique in general: Cellular ATP, detected with luciferase, serves as a proxy for viable cell number.

Molecules are shown by their SMILES. Where a chain is given by its changes, count along the chain named.

As to `CCC(=O)Nc1cccc(Oc2nc(Nc3ccc(N4CCN(C)CC4)cc3OC)ncc2Cl)c1` [WZ4003], the “inhibition of phosphorylation of MYPT1 by NUAK1 at Ser445” value at NUAK1 is “inhibit the phosphorylation of MYPT1”. In addition, in assay [1], the “resistance of NUAK1 Ala195Thr mutant to the inhibitor” value is given as 50 fold. Moreover, the “inhibition on proliferation against MEF cells” value in the assay on MEF cells is listed as “comparable to that of shRNA knockdown of NUAK1”. For the same compound, the “inhibition of U2OS cell invasion” value with U2OS cell is recorded as “inhibited U2OS cell invasion similarly to NUAK1 knockout did”.
Take `COc1cc(N2CCN(C)CC2)ccc1Nc1ncc2cnc(=O)n(C3CCCC3)c2n1` [Example 5, 1-cyclopentyl-7-((2-methoxy-4-(4-methylpiperazin-1-yl)phenyl)amino)pyrimido[4,5-d]pyrimidin-2(1H)-one]: the values for the IC50 (on NUAK1(h) enzyme; at NUAK2(h) enzyme; in assay [2]) were 100 to 1000 nM, not above 10 nM and 500 to 1000 nM, respectively.
In the case of `CN1CCN(c2ccc(Nc3ncc4c(n3)N(C3CCCC3)C(=O)NC4)c(Br)c2)CC1` [Example 32, 7-((2-bromo-4-(4-methylpiperazin-1-yl)phenyl)amino)-1-cyclopentyl-3,4-dihydropyrimido[4,5-d]pyrimidin-2(1H)-one], the IC50 on NUAK1(h) enzyme fell in the range of 10 to 100 nM; at NUAK2(h) enzyme it was 10 to 100 nM; in assay [2], 1000 to 10000 nM.
Take `Cc1nc(Nc2cnn(C3CCNCC3)c2)nc2c1N(C)C(=O)c1cc3ccccc3cc1N2C` [HTH-01-015]: at NUAK1, the “inhibition of phosphorylation of MYPT1 by NUAK1 at Ser445” value is on record as “inhibit the phosphorylation of MYPT1”. The “resistance of NUAK1 Ala195Thr mutant to the inhibitor” value in assay [1] is 50 fold. Further, in the assay on MEF cells, the “inhibition on proliferation against MEF cells” value is on record as “comparable to that of shRNA knockdown of NUAK1”. In addition, in the assay on U2OS cell, the “inhibition of U2OS cell invasion” value is reported as “inhibited U2OS cell invasion similarly to NUAK1 knockout did”.
Regarding `COc1cc(N2CCN(C)CC2)ccc1Nc1ncc2ccc(=O)n(C3CCCC3)c2n1` [Example 19, 8-cyclopentyl-2-((2-methoxy-4-(4-methylpiperazin-1-yl)phenyl)amino)pyrido[2,3-d]pyrimidin-7(8H)-one], the values for the IC50 (on NUAK1(h) enzyme; at NUAK2(h) enzyme; in assay [2]) were 10 to 100 nM, not above 10 nM and 500 to 1000 nM, respectively.
As for `Cc1cc(N2CCN(C)CC2)ccc1Nc1ncc2cnc(=O)n(C3CCCC3)c2n1` [Example 10, 1-cyclopentyl-7-((2-methyl-4-(4-methylpiperazin-1-yl)phenyl)amino)pyrimido[4,5-d]pyrimidin-2(1H)-one], the IC50 on NUAK1(h) enzyme was 100 to 1000 nM; on NUAK2(h) enzyme it was 10 to 100 nM; in assay [2] it was 500 to 1000 nM.
On to `COc1cc(N2CCN(C)CC2)ccc1Nc1ncc2cc(C)c(=O)n(C3CC3)c2n1` [Example 21], for which the values for the IC50 (at NUAK1(h) enzyme; on NUAK2(h) enzyme; in assay [2]) were 10 to 100 nM, 100 to 1000 nM and 100 to 500 nM, respectively.
